Values quoted from earlier work, collected in patent publication US20110142834A1, “TREATMENT OF HEARING AND BALANCE IMPAIRMENTS USING COMPOUNDS HAVING ERYTHROPOIETIN ACTIVITY” (Edison Pharmaceuticals, Inc., priority 2008, published 2011).

## [H]/N=C(/N)N[C@H]1[C@H](O)[C@@H](O)[C@H](O[C@@H]2O[C@@H](C)[C@](O)(C=O)[C@H]2O[C@@H]2O[C@@H](CO)[C@H](O)[C@@H](O)[C@@H]2NC)[C@@H](N/C(N)=N\[H])[C@@H]1O [streptomycin]
1 gram per day
  incidence of vestibular impairment: 25%
2 grams daily for 60 to 120 days
  patients displaying some vestibular impairment: ~75%
